Literature values as cited in patent US10332616B2, “Movable type method applied to protein-ligand binding” (University of Florida Research Foundation, Inc., priority 2013, dated 2019).

tested on: not given; settings: experimental solvation free energy, neutral compounds test set

Structure (SMILES)	Exp. ΔGsolv
ClCCOCCCl [test0007]	-4.23 kcal/mol
CCOC(C)OCC [test0009]	-3.28 kcal/mol
COCOC [test0012]	-2.93 kcal/mol
CC(=O)OCCOC(C)=O [test0013]	-6.34 kcal/mol
CCOCCOCC [test0014]	-3.54 kcal/mol
CCc1cccc(CC)c1N(COC)C(=O)CCl [test1007]	-8.2 kcal/mol
CNC(=O)O/N=C/C(C)(C)SC [test1008]	-9.8 kcal/mol
COP(=S)(OC)SCn1nnc2ccccc2c1=O [test1010]	-10 kcal/mol
CCCCN(CC)c1c([N+](=O)[O-])cc(C(F)(F)F)cc1[N+](=O)[O-] [test1011]	-3.5 kcal/mol
COC(=O)c1ccccc1CS(=O)(=O)NC(=O)Nc1nc(OC)cc(OC)n1 [test1012]	-17.2 kcal/mol
CCC(C)n1c(=O)[nH]c(C)c(Br)c1=O (stereo not drawn) [test1013]	-9.7 kcal/mol
O=C1C2CC=CCC2C(=O)N1SC(Cl)(Cl)Cl (stereo not drawn) [test1014]	-9 kcal/mol
CNC(=O)Oc1cccc2ccccc12 [test1015]	-9.5 kcal/mol
CNC(=O)Oc1cccc2c1OC(C)(C)C2 [test1016]	-9.6 kcal/mol
CCOP(=O)(OCC)O/C(=C\Cl)c1ccc(Cl)cc1Cl [test1019]	-7.1 kcal/mol
CCOC(=O)c1ccccc1S(=O)(=O)NC(=O)Nc1nc(Cl)cc(OC)n1 [test1020]	-14 kcal/mol
CCOP(=S)(OCC)SC(CCl)N1C(=O)c2ccccc2C1=O (stereo not drawn) [test1023]	-5.7 kcal/mol
CCOP(=S)(OCC)Oc1cc(C)nc(C(C)C)n1 [test1024]	-6.5 kcal/mol
COc1c(Cl)ccc(Cl)c1C(=O)O [test1025]	-9.9 kcal/mol
CCN(CC)c1c([N+](=O)[O-])cc(C(F)(F)F)c(N)c1[N+](=O)[O-] [test1027]	-5.7 kcal/mol
O=S1OC[C@@H]2[C@H](CO1)[C@@]1(Cl)C(Cl)=C(Cl)[C@]2(Cl)C1(Cl)Cl (stereo partly drawn) [test1029]	-4.2 kcal/mol
ClC1=C(Cl)C2(Cl)C3C4CC(C5OC45)C3C1(Cl)C2(Cl)Cl (stereo not drawn) [test1030]	-5.5 kcal/mol
CCOP(=S)(OCC)SCSP(=S)(OCC)OCC [test1031]	-6.1 kcal/mol

Structure (SMILES)	Exp. ΔGsolv
CCOC(=O)CC(SP(=S)(OC)OC)C(=O)OCC (stereo not drawn) [test1036]	-8.2 kcal/mol
CNC(=O)ON=C(C)SC [test1037]	-10.7 kcal/mol
COC(=O)c1ccccc1S(=O)(=O)NC(=O)Nc1nc(C)nc(OC)n1 [test1039]	-15.5 kcal/mol
CCCN(CCC)c1c([N+](=O)[O-])cc(S(C)(=O)=O)cc1[N+](=O)[O-] [test1040]	-8 kcal/mol
CCOP(=S)(OCC)Oc1ccc([N+](=O)[O-])cc1 [test1043]	-6.7 kcal/mol
CCCCN(CC)C(=O)SCCC [test1044]	-3.6 kcal/mol
CCOP(=S)(OCC)SCSCC [test1045]	-4.4 kcal/mol
CCC(=O)Nc1ccc(Cl)c(Cl)c1 [test1048]	-7.8 kcal/mol
Nc1cnn(-c2ccccc2)c(=O)c1Cl [test1049]	-16.4 kcal/mol
CCNc1nc(Cl)nc(NCC)n1 [test1050]	-10.2 kcal/mol
COC(=O)c1ccccc1S(=O)(=O)NC(=O)Nc1nc(C)cc(C)n1 [test1051]	-20.3 kcal/mol
Cc1[nH]c(=O)n(C(C)(C)C)c(=O)c1Cl [test1052]	-11.1 kcal/mol
COC(=O)c1sccc1S(=O)(=O)NC(=O)Nc1nc(C)nc(OC)n1 [test1054]	-16.2 kcal/mol
COP(=O)(OC)C(O)C(Cl)(Cl)Cl (stereo not drawn) [test1055]	-12.7 kcal/mol
CCCSC(=O)N(CCC)CCC [test1057]	-4.1 kcal/mol
Nc1ccc(Nc2ccccc2)c2c1C(=O)c1ccccc1C2=O [test1059]	-7.4 kcal/mol
Nc1ccc(N)c2c1C(=O)c1c(N)ccc(N)c1C2=O [test1060]	-8.9 kcal/mol
Nc1cccc2c1C(=O)c1ccccc1C2=O [test1061]	-8 kcal/mol
CC(=O)Oc1ccccc1C(=O)O [test2001]	-9.94 kcal/mol
CCCCOC(=O)c1ccc(O)cc1 [test2003]	-8.72 kcal/mol
Cn1c(=O)c2c(ncn2C)n(C)c1=O [test2004]	-12.64 kcal/mol
O=c1cc(Cl)[nH]c(=O)[nH]1 [test2006]	-15.83 kcal/mol
O=c1[nH]c(=O)[nH]c(=O)[nH]1 [test2007]	-18.06 kcal/mol

Structure (SMILES)	Exp. ΔGsolv
O=C(O)c1cc(-c2ccc(F)cc2F)ccc1O [test2010]	-9.4 kcal/mol
CCOC(=O)c1ccc(O)cc1 [test2011]	-9.2 kcal/mol
CC(C(=O)O)c1ccc(-c2ccccc2)c(F)c1 (stereo not drawn) [test2013]	-8.42 kcal/mol
Clc1c(Cl)c(Cl)c(Cl)c(Cl)c1Cl [test2015]	-2.33 kcal/mol
CC(C)Cc1ccc(C(C)C(=O)O)cc1 (stereo not drawn) [test2017]	-7 kcal/mol
COC(=O)c1ccc(O)cc1 [test2020]	-9.51 kcal/mol
COc1ccc2cc([C@H](C)C(=O)O)ccc2c1 [test2021]	-10.21 kcal/mol
FC1(F)C(F)(F)C(F)(F)C1(F)F [test2023]	3.43 kcal/mol
O=[N+]([O-])c1c(Cl)c(Cl)c(Cl)c(Cl)c1Cl [test2024]	-5.22 kcal/mol
CCCOC(=O)c1ccc(O)cc1 [test2026]	-9.37 kcal/mol
O=S1(=O)CCCC1 [test2027]	-8.61 kcal/mol
COC(OC)(OC)C(F)(F)F [test2029]	-0.8 kcal/mol
CC(=O)Nc1ccc(O)cc1 [test3001]	-14.83 kcal/mol
CC(=O)Nc1cccc(O)c1 [test3002]	-13.93 kcal/mol
O=C(O)CCC(=O)c1ccc(-c2ccccc2)cc1 [test3003]	-12.75 kcal/mol
CC(=O)Nc1ccccc1O [test3004]	-11.61 kcal/mol
CCOc1ccc(NC(C)=O)cc1 [test3005]	-10.91 kcal/mol
COc1ccccc1C(=O)O [test3007]	-10.32 kcal/mol
COc1ccc(C(=O)O)cc1 [test3014]	-9.15 kcal/mol
COc1cccc(C(=O)O)c1 [test3015]	-8.93 kcal/mol
Cc1c(Cl)cccc1Nc1ccccc1C(=O)O [test3019]	-6.71 kcal/mol
O=C(O)Cc1ccccc1Nc1c(Cl)cccc1Cl [test3020]	-6.3 kcal/mol
O=C(O)c1ccccc1Nc1cccc(C(F)(F)F)c1 [test3021]	-5.68 kcal/mol

same assay, conditions: experimental solvation free energy; test set with 372 neutral compounds

Structure (SMILES)	Exp. ΔGsolv
c1c[nH]cn1 [test0017]	-9.81 kcal/mol
CCCCO[N+](=O)[O-] [test1003]	-2.1 kcal/mol
CCC(C)O[N+](=O)[O-] (stereo not drawn) [test1004]	-1.8 kcal/mol
CC(C)CO[N+](=O)[O-] [test1005]	-1.9 kcal/mol
CCNc1nc(NC(C)C)nc(SC)n1 [test1009]	-7.7 kcal/mol
CCOP(=S)(OCC)SCSc1ccc(Cl)cc1 [test1017]	-6.5 kcal/mol
ClC1=C(Cl)C2(Cl)C3C(Cl)C(Cl)CC3C1(Cl)C2(Cl)Cl (stereo not drawn) [test1018]	-3.4 kcal/mol
CCOP(=S)(OCC)Oc1nc(Cl)c(Cl)cc1Cl [test1022]	-5 kcal/mol
CCC(C)c1cc([N+](=O)[O-])cc([N+](=O)[O-])c1O (stereo not drawn) [test1028]	-6.2 kcal/mol
ClC1=C(Cl)C2(Cl)C3C(Cl)C=CC3C1(Cl)C2(Cl)Cl (stereo not drawn) [test1033]	-2.6 kcal/mol
CC1=CC(=O)CC(C)(C)C1 [test1034]	-5.2 kcal/mol
Cl[C@H]1[C@H](Cl)[C@@H](Cl)[C@@H](Cl)[C@H](Cl)[C@H]1Cl [test1035]	-5.4 kcal/mol
CCCN(CC1CC1)c1c([N+](=O)[O-])cc(C(F)(F)F)cc1[N+](=O)[O-] [test1046]	-2.5 kcal/mol
CSc1nc(NC(C)C)nc(NC(C)C)n1 [test1047]	-8.4 kcal/mol
CCNc1nc(NC(C)(C)C)nc(SC)n1 [test1053]	-6.7 kcal/mol
CCCN(CCC)c1c([N+](=O)[O-])cc(C(F)(F)F)cc1[N+](=O)[O-] [test1056]	-3.3 kcal/mol
Nc1ccc(N=Nc2ccc([N+](=O)[O-])cc2)cc1 [test1058]	-11.2 kcal/mol
Cc1nc(N(C)C)nc(OC(=O)N(C)C)c1C [test1063]	-9.4 kcal/mol
Nc1ccc([N+](=O)[O-])cc1 [test2022]	-9.45 kcal/mol
O=C1NC(=O)c2ccccc21 [test2025]	-9.61 kcal/mol

target: T4 Lysozyme mutant; settings: PDB ID 1LI2

Structure (SMILES)	binding affinity (pKd)
Oc1ccccc1 [phenol]	4.04
